The source of these data is ChEMBL document CHEMBL2346530, “Discovery of non-peptide inhibitors of Plasmepsin II by structure-based virtual screening” (Bioorg Med Chem Lett, 2013).

In one assay the target is Plasmepsin II (Plasmodium falciparum, UniProt P46925). Briefly: Inhibition of recombinant Plasmodium falciparum plasmepsin 2 expressed in Escherichia coli using DABCYL-Glu-Arg-Nle-Phe-Leu-Ser-Phe-Pro-EDANS as substrate incubated for 40 mins prior to substrate addition measured after 10 mins by FRET-based fluorometric analysis.
The target in assay [1] is Plasmepsin II (Plasmodium falciparum) (UniProt P46925). Briefly: Inhibition of recombinant Plasmodium falciparum plasmepsin 2 expressed in Escherichia coli using DABCYL-Glu-Arg-Nle-Phe-Leu-Ser-Phe-Pro-EDANS as substrate at 10 uM incubated for 40 mins prior to substrate addition measured after 10 mins by FRET-based fluorometric analysis.
Sequence of Plasmepsin II (Plasmodium falciparum) (P46925 125-453 limits assumed): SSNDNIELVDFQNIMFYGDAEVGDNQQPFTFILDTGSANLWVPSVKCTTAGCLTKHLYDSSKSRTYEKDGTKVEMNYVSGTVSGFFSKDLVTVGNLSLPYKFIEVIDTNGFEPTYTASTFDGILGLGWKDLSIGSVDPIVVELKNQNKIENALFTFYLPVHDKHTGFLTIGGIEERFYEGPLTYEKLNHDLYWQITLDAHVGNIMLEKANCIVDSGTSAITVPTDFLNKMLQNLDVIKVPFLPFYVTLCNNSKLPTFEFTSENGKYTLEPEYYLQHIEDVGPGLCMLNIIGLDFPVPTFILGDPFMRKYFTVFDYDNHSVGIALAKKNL

Sequence of Plasmepsin II (P46925 whole entry): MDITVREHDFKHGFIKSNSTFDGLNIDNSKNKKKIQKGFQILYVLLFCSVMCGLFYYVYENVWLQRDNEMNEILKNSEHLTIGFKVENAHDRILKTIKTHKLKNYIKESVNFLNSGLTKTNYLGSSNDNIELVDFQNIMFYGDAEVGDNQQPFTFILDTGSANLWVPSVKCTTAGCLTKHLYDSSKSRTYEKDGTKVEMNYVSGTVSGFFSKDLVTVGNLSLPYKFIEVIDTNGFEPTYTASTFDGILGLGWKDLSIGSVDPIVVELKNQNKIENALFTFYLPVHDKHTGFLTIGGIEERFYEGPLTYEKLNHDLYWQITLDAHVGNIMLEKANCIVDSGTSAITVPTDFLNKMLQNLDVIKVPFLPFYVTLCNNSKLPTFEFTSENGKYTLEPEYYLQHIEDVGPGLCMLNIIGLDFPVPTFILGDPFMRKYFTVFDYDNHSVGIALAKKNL

As for `Cc1ccc(S(=O)(=O)Nc2ccccc2CNc2cnc3ccccc3c2)cc1`, the IC50 on Plasmepsin II was determined as 7 µM. Besides, in assay [1], the inhibition was determined as 60.6%.
For `OC(CNCc1ccccc1)Cn1c2ccc(Cl)cc2c2cc(Cl)ccc21` (stereo not given), in that order: 9.47 µM and 52%.
Taken in the same sequence, the figures for `O=C(CN(c1cccc(Br)c1)S(=O)(=O)c1ccccc1)Nc1ccc(CSc2ccccc2)cc1` were 8.99 µM and 54.7%.
For `N=C(S)NN/C(=C\c1nc(-c2ccccn2)cc2ccccc12)c1ccc(Cl)cc1`, in that order: 6.45 µM and 55%.
In the case of `Cc1ccccc1N/C(=N\N=C/c1ccc2ccc3ccc(/C=N\N=C(/Nc4ccccc4C)c4ccccn4)nc3c2n1)c1ccccn1`, the IC50 at Plasmepsin II came out at 4.62 µM. The inhibition in assay [1] was 67.7%.
